Experimental data taken from patent US12090146B2, “Substituted-pyridinyl compounds and uses thereof” (Bionomics Limited, priority 2018, dated 2024).

Assays:
hKv3.2 = target: T1, hKv3.2 (Homo sapiens, UniProt Q96PR1); experiment: Automated patch clamp (Patchliner) whole-cell electrophysiology, Kv3.2; type: cell-based; settings: 10 μM compound, CHO-K1 cells stably expressing hKv3.2; for activation at 10 µM: % potentiation of peak current at −10 mV voltage step vs vehicle; for Kv3.2 Activity at 10 μM Voltage Shift (mV): voltage shift of the IV curve at V1/2
T1 construct: expressed in transfected cells
T1 sequence (Q96PR1 1-638): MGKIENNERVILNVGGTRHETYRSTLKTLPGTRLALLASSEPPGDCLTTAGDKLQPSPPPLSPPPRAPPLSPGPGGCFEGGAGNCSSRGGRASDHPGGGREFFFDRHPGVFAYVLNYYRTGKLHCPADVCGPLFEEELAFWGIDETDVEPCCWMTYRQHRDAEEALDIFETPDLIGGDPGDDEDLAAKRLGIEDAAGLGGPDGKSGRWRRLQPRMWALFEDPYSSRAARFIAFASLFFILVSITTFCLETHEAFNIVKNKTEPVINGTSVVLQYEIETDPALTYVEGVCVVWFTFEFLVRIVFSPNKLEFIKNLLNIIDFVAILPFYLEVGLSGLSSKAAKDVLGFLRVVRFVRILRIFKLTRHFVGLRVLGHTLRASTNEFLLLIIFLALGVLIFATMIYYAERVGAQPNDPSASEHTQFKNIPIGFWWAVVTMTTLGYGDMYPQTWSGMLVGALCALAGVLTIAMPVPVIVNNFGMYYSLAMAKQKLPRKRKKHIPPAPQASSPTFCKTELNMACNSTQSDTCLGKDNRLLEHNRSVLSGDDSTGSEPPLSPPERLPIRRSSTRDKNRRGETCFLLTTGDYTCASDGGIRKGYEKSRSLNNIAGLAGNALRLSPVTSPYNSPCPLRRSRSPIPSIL
Method: (§1) hKv3.1, hKv3.2, hKv3.3, and hKv3.4 were stably expressed in CHO-K1 (Chinese hamster ovary) cells and kept under constant antibiotic selection. For in vitro assays, cells were maintained in appropriate growth medium at 37° C. and 5% CO2 in a humidified incubator.
(§2) hKv3.X expressing cells were plated in T-25 flasks for 3-4 days at 37° C. (no selection antibiotic) prior to use and grown to 80% confluence. Cells were washed twice with PBS (calcium and magnesium free) and detached with a 5-minute treatment at 37° C. with 2-3 mls of Accutase®. Cells were collected, and flask was washed in CHO-SFM II media (Life Technologies Gibco), centrifuged for 2 minutes at ˜110×g and resuspended to obtain a single cell suspension of ˜2-3×10^6 cells/ml.
(§3) The intracellular solution contained the following (in mM): KCl 50, NaCl 10, KF 60, EGTA 20, HEPES 10, adjusted to pH 7.2 with KOH and an osmolarity of 285 mOsmol. Seal enhancer was purchased from Nanion (80 mM NaCl, 3 mM KCl, 10 mM MgCl2, 35 mM CaCl2), 10 mM HEPES, pH7.4, 298 mOsmol. The external solution contained (in mM): NaCl 140, KCl 4, CaCl2) 2, MgCl2 1, HEPES 10, Glucose 5, adjusted to pH7.4 and an osmolarity of 298 mOsmol.
(§4) All compounds were initially tested at 10 uM at a final DMSO concentration of 0.33%. Compounds were dissolved in dimethylsulfoxide (DMSO) at a stock concentration of 30 mM. The compound was further diluted 1:10 to give a stock concentration of 3 mM in DMSO. The final assay solution was diluted 1:300 in External solution to give a final concentration of 10 uM. For the DMSO Control Buffer 30 uL of DMSO was added to 10 mL buffer.
(§5) All electrophysiological recordings were performed at ambient temperature (21-23° C.) using automated patch clamp (Patchliner, Nanion Technologies GmbH) in the whole-cell configuration.
(§6) Cell membrane potentials were held at −80 mV, and currents were evoked by voltage steps (1000 ms duration) from −60 to +60 mV in 10 mV increments. This was performed first with vehicle (0.33% DMSO) and then with 10 uM compound, after a 3-minute incubation period. Data was taken from 4 cells per assay.
(§7) The recordings were analysed and selected using peak current amplitude (>100 pA at the −10 mV voltage step) in the absence of compound to eliminate unsuitable cells from analysis. Peak current amplitude was measured and recorded for each voltage step and data was normalised to the maximum current at +60 mV. The normalised Kv3.x currents following addition of the compound were then compared with the currents recorded prior to compound addition (vehicle control). Positive modulation was determined as % potentiation at the voltage step of −10 mV=[current (cmpd)/current (veh)]*100−100. % potentiation ≥50% was considered acceptable. In addition, voltage shift of the IV curve at V1/2 was measured. V1/2 of ≥−5 mV was also considered acceptable. IV curves were plotted in GraphPad Prism (software version 6.0) and fitted with a Boltzmann equation, where V1/2 is the voltage at half-maximal activation.

hKv3.1 = target: T2, hKv3.1 (Homo sapiens, UniProt P48547); experiment: Automated patch clamp (Patchliner) whole-cell electrophysiology, Kv3.1; type: cell-based; settings: 10 μM compound, CHO-K1 cells stably expressing hKv3.1; for Kv3.1 Activity at 10 μM Potentiation (%): % potentiation of peak current at −10 mV voltage step vs vehicle; for Kv3.1 Activity at 10 μM Voltage Shift (mV): voltage shift of the IV curve at V1/2
T2 construct: expressed in transfected cells
T2 sequence (P48547 1-511): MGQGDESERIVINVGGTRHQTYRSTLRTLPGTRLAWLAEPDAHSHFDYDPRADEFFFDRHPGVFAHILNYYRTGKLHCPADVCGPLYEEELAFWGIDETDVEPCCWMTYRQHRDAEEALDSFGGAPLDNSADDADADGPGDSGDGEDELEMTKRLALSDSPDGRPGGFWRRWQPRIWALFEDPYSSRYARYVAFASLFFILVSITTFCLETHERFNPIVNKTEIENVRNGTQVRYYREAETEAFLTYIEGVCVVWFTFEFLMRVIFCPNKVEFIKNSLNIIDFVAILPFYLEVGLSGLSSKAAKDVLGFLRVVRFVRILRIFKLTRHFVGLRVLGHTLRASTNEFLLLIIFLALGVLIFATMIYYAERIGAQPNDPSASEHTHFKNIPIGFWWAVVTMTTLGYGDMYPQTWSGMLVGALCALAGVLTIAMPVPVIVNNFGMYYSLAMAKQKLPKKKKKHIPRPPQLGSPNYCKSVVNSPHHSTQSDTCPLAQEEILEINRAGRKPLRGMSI
Method: as §1, §2, §3, §4, §5, §6, §7

Structure (SMILES)	activation at 10 µM (hKv3.2) [%]	Kv3.2 Activity at 10 μM Voltage Shift (mV) (hKv3.2)	Kv3.1 Activity at 10 μM Potentiation (%) (hKv3.1)	Kv3.1 Activity at 10 μM Voltage Shift (mV) (hKv3.1)
COc1cc(Oc2cc(N3C(=O)NC(C)(C)C3=O)ccn2)ccc1C [Example 1, 3-[2-(3-methoxy-4-methyl-phenoxy)-4-pyridyl]-5,5-dimethyl-imidazolidine-2,4-dione]	21	−1.23	53	−2.9
CC1(C)NC(=O)N(c2ccnc(Oc3ccc4c(c3)CCC4)c2)C1=O [Example 3, 3-(2-indan-5-yloxy-4-pyridyl)-5,5-dimethyl-imidazolidine-2,4-dione]	66	−6.71	58	−4.65
COc1cc(Oc2cc(N3C(=O)NC(C)(C)C3=O)ccn2)ccc1C(F)(F)F [Example 4, 3-[2-[3-methoxy-4-(trifluoromethyl)phenoxy]-4-pyridyl]-5,5-dimethyl-imidazolidine-2,4-dione]	14	−4.12	36	−5.13
COc1cc(Oc2cc(N3C(=O)NC(C)(C)C3=O)ccn2)ccc1F [Example 6, 3-[2-[3-methoxy-4-fluorophenoxy]-4-pyridyl]-5,5-dimethyl-imidazolidine-2,4-dione]	25	−3.18		
COc1cc(Oc2cc(N3C(=O)NC(C)(C)C3=O)ccn2)ccc1Cl [Example 8, 3-[2-(4-chloro-3-methoxy-phenoxy)-4-pyridyl]-5,5-dimethyl-imidazolidine-2,4-dione]	22	−2.39	32	−4.09
CC1(C)NC(=O)N(c2ccnc(Oc3ccc4c(c3)OC(F)(F)O4)c2)C1=O [Example 9, 3-[2-[(2,2-difluoro-1,3-benzodioxol-5-yl)oxy]-4-pyridyl]-5,5-dimethyl-imidazolidine-2,4-dione]	30	−3.92	80	−6.49
CC[C@@]1(C)NC(=O)N(c2ccnc(Oc3ccc(C)c(OC)c3)c2)C1=O [Example 10, (5R)-5-ethyl-3-[2-(3-methoxy-4-methyl-phenoxy)-4-pyridyl]-5-methyl-imidazolidine-2,4-dione]	21	−2.67	72	−5.46
CC[C@@]1(C)NC(=O)N(c2ccnc(Oc3ccc4c(c3)OC(F)(F)O4)c2)C1=O [Example 16, (5R)-3-[2-[(2,2-difluoro-1,3-benzodioxol-5-yl)oxy]-4-pyridyl]-5-ethyl-5-methyl-imidazolidine-2,4-dione]	47	−3.63		
COc1cc(Oc2cc(N3C(=O)NC4(CCCCC4)C3=O)ccn2)ccc1C [Example 24, 3-[2-(3-methoxy-4-methyl-phenoxy)-4-pyridyl]-1,3-diazaspiro[4.5]decane-2,4-dione]	42	−5.52		
CC[C@@]1(C)NC(=O)N(c2cccc(Oc3ccc4c(c3)OCCC4)n2)C1=O [Example 64, (5R)-3-(6-chroman-7-yloxy-2-pyridyl)-5-ethyl-5-methyl-imidazolidine-2,4-dione]			15	−2.57
CC[C@@]1(C)NC(=O)N(c2cccc(Oc3ccc(C)c(C)c3)n2)C1=O [Example 65, (5R)-3-[6-(3,4-dimethylphenoxy)-2-pyridyl]-5-ethyl-5-methyl-imidazolidine-2,4-dione]			22	−3.79
CC[C@@]1(C)NC(=O)N(c2cccc(Oc3cccc4c3CCC4)n2)C1=O [Example 69, (5R)-5-ethyl-3-(6-indan-4-yloxy-2-pyridyl)-5-methyl-imidazolidine-2,4-dione]			73	−3
CC[C@]1(C)NC(=O)N(c2cccc(Oc3ccc(C)c(OC)c3)n2)C1=O [Example 72, (5S)-5-ethyl-3-[6-(3-methoxy-4-methyl-phenoxy)-2-pyridyl]-5-methyl-imidazolidine-2,4-dione]			33	−4.25
COc1cc(Oc2cccc(N3C(=O)NC(C)(C)C3=O)n2)ccc1C [Example 73, 3-[6-(3-methoxy-4-methyl-phenoxy)-2-pyridyl]-5,5-dimethyl-imidazolidine-2,4-dione]			26	−1.61
CC(C)c1cc(Oc2cccc(N3C(=O)NC(C)(C)C3=O)n2)ccc1C#N [Example 77, 4-[[6-(4,4-dimethyl-2,5-dioxo-imidazolidin-1-yl)-2-pyridyl]oxy]-2-isopropyl-benzonitrile]			12	−0.95
CC[C@@]1(C)NC(=O)N(c2ccc(F)c(Oc3ccc(C)c(OC)c3)n2)C1=O [Example 89, (5R)-5-ethyl-3-[5-fluoro-6-(3-methoxy-4-methyl-phenoxy)-2-pyridyl]-5-methyl-imidazolidine-2,4-dione]	28	−2.58		
